Data reported in ChEMBL document CHEMBL1201862, “PubChem BioAssay data set” (2004).
Calls of active or inactive are those of the source.

Experiments:
[1] = target: T1, Heat shock factor protein 1 (Mus musculus, UniProt P38532); experiment: HSF1 potentiators in luciferase reporter cells, confirmation, cell-based, NIH3T3, luminescence, dose retest (AID 435004); format: functional;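 further: stress induced by proteasome inhibitor MG132 added 30 min after compound; luciferase reporter driven by HSF1 response element in NIH3T3 cells; actives raise luminescence as potentiators of the MG132 stress response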
T1 sequence (P38532 whole entry): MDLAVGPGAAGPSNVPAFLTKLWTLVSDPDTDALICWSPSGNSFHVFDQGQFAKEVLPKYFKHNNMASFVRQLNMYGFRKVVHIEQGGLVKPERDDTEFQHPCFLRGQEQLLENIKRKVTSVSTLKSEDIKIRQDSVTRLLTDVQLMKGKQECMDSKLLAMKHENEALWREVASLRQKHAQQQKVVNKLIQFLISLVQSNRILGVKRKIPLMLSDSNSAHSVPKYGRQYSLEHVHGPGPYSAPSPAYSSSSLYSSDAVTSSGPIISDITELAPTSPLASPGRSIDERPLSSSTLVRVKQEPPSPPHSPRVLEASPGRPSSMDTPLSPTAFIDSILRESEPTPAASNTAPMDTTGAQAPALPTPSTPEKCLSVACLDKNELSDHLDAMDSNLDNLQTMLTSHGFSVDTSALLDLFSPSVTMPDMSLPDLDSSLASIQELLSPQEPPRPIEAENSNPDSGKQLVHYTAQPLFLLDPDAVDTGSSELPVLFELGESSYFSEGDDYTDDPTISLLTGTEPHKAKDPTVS

[2] = target: T1, Heat shock factor protein 1; experiment: inhibition of MG132-induced HSE-luciferase signal, confirmation, cell-based, NIH3T3, luminescence, dose retest (AID 2382); format: functional;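 further: NIH3T3 fibroblasts with HSF1-driven luciferase reporter stressed by proteasome inhibitor MG132; luminescence from HSF1-driven luciferase expression after 8 hours of MG132 stress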
Cytochrome P450 2C19 = Cytochrome P450 2C19 (Homo sapiens, UniProt P33261); experiment: Cytochrome panel assay with activity outcomes. Panel member name: p450-cyp2c19 Compounds with AC50 equal or less than 10 uM are considered active; format: functional
Sequence of Cytochrome P450 2C19 (P33261 whole entry): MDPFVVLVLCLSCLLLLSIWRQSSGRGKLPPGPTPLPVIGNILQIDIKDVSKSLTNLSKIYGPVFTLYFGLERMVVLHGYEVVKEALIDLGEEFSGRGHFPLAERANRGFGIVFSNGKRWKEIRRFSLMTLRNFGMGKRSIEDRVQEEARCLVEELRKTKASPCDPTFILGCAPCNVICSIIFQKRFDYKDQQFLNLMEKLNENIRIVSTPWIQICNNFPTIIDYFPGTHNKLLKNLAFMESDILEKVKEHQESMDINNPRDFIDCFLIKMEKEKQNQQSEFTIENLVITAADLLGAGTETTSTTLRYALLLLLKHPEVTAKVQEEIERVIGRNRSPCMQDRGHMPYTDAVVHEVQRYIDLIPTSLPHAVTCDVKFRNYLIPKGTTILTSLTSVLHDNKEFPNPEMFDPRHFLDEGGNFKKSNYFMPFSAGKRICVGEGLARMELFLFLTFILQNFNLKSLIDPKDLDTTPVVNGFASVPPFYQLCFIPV

Cytochrome P450 2C9 = Cytochrome P450 2C9 (Homo sapiens, UniProt P11712)
Sequence of Cytochrome P450 2C9 (P11712 whole entry): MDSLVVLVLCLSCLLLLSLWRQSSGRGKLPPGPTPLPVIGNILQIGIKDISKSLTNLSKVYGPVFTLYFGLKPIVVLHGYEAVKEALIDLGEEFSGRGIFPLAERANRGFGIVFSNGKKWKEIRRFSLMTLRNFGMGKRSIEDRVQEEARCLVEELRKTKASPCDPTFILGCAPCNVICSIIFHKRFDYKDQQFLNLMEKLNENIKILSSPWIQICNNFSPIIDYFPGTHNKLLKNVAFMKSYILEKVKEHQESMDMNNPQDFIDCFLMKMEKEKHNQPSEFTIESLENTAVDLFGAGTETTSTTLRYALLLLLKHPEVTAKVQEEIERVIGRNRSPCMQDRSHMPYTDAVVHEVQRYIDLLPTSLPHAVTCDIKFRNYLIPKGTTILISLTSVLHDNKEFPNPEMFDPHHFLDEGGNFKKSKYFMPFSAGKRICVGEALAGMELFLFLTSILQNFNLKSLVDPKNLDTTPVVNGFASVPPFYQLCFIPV

Cytochrome P450 1A2 = target: T2, Cytochrome P450 1A2 (Homo sapiens, UniProt P05177);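 further: PubChem cytochrome P450 panel assay, CYP1A2 panel member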
T2 sequence (P05177 whole entry): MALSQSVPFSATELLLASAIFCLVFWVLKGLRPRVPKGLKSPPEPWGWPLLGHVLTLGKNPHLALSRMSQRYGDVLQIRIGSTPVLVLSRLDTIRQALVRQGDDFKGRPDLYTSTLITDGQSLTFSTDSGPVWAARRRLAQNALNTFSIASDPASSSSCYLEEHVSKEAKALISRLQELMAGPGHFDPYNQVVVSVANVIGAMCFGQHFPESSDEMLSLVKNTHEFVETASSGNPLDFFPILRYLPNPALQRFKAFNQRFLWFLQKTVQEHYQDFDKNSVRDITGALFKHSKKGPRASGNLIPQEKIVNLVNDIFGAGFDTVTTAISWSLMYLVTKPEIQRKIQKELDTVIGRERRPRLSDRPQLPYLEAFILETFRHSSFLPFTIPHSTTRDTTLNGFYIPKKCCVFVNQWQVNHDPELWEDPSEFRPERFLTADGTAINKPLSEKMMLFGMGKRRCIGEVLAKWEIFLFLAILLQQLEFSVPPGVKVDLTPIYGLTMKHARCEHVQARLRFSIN

Cytochrome P450 3A4 = Cytochrome P450 3A4 (Homo sapiens, UniProt P08684);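 further: CYP3A4 tested as one member of a cytochrome P450 panel screen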
Sequence of Cytochrome P450 3A4 (P08684 whole entry): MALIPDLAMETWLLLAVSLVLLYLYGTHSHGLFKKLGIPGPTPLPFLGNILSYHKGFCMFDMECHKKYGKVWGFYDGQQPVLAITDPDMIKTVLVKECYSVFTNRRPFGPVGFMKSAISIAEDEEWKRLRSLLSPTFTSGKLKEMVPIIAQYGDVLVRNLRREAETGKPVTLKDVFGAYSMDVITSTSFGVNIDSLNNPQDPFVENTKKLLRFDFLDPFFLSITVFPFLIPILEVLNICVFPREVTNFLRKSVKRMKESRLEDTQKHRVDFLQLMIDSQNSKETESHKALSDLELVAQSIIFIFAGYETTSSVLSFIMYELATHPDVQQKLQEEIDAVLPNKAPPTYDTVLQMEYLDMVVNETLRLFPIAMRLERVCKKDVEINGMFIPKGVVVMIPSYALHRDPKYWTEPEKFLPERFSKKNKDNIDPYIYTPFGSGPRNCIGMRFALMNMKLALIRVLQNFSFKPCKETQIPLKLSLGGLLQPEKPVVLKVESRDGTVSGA

H4 = experiment: Luminescence Cell-Based Dose Response HTS to Identify Activators of 5'UTR Stem-Loop Driven Prion Protein mRNA Translation in H4 Neuroglioblastoma Cells. [Related pubchem assays: 1829 (Project Summary), 1814 (Primary HTS)]; format: functional; settings: Homo sapiens
[3] = Luminescence Cell-Based Dose Confirmation HTS to Identify Activators of 5'UTR Stem-Loop Driven Alpha-Synuclein mRNA Translation in H4 Neuroglioblastoma Cells. [Related pubchem assays: 1829 (Project Summary), 1814 (Primary HTS)]; format: functional
[4] = Luminescence Cell-Based Dose Response HTS to Identify Activators of Luciferase Translation or Activity in H4 […] Cells. [Related pubchem assays: 1829 (Project Summary), 1814 (Primary HTS)]; format: functional

Question: With CC(NC(=O)c1ccc(C(C)(C)C)cc1)C(c1cccs1)N1CCOCC1 (configuration not stated) as the compound, how does the EC50 [1] read?
Answer: > 260 µM (inactive)

Question: Which EC50 [2] does the source give for CC(C)CNC(=O)c1noc2c1CCCC2 here?
Answer: > 195 µM (not active)

Question: With CC(C)C(=O)N1c2ccccc2N=C2CCCC(O)=C2C1c1ccc(N(C)C)cc1 (configuration not stated) as the compound, how does the EC50 [2] read?
Answer: > 195 µM (not active)

Question: Which EC50 [2] does the source give for Cc1ccc2c(c1)N(CC(=O)O)C(=O)CO2 here?
Answer: > 195 µM (not active)

Question: What does the source list for O=P(Nc1c(Cl)cccc1Cl)(c1ccccc1)c1nc2c(s1)CCCC2 (configuration not stated)?
Answer: AC50 (Cytochrome P450 2C19; read-out: AC50): 20 µM (inconclusive); AC50 (Cytochrome P450 2C9): 17.8 µM (inconclusive)

Question: For COCCn1c(=O)c(-c2cccc(C#N)c2)nc2cnc(OCc3ccccc3)nc21, which AC50 (Cytochrome P450 2C19) is on record?
Answer: inconclusive

Question: What about the AC50 (Cytochrome P450 1A2) of the same compound?
Answer: 12.6 µM (inconclusive)

Question: Which EC50 [2] does the source give for CC1(C)CC(=O)C=C(Nc2ccc(Br)cc2F)C1 here?
Answer: > 195 µM (not active)

Question: What does the source list for O=[N+]([O-])c1cccc(/C(=N/N=C/c2ccccc2Br)C23CN4CN(CN(C4)C2)C3)c1?
Answer: AC50 (Cytochrome P450 2C19; read-out: AC50): 14.1 µM (inconclusive); AC50 (Cytochrome P450 1A2): 22.4 µM (inconclusive); AC50 (Cytochrome P450 3A4): 31.6 µM (inconclusive); AC50 (Cytochrome P450 2C9): 35.5 µM (inconclusive)

Question: Which AC50 (Cytochrome P450 1A2) does the source give for O=C(CSCc1cccc(Cl)c1)N/N=C/c1ccc(OCC(=O)N2CCCCC2)cc1 here?
Answer: 20 µM (inconclusive)

Question: What about the AC50 (Cytochrome P450 2C9) of the same compound?
Answer: 22.4 µM (inconclusive)

Question: With Cc1ccc2nsnc2c1S(=O)(=O)N(CCO)Cc1cc2cc3c(cc2nc1O)OCCO3 as the compound, how does the EC50 (H4) read?
Answer: 10.4 µM (active)

Question: What about the EC50 [3] of the same compound?
Answer: 14.2 µM (active)

Question: And the EC50 [4]?
Answer: 8.99 µM (active)

Question: Which EC50 [2] does the source give for COC(=O)C1=C(C)N(Cc2ccco2)C(=O)C1 here?
Answer: > 195 µM (not active)

Question: For O=C(O)c1cc(S(=O)(=O)N(Cc2ccccc2)c2ccccc2Cl)ccc1Cl, which EC50 [2] is on record?
Answer: > 195 µM (not active)

Question: For C/C(CC(=O)Nc1cc(C)cc(C)c1)=N\NC(=O)c1ccccn1, which EC50 (H4) is on record?
Answer: 42.2 µM (active)

Question: And the EC50 [3]?
Answer: > 120 µM (not active)

Question: And the EC50 [4]?
Answer: > 120 µM (not active)

Question: Which EC50 [1] does the source give for C=C1S/C(=N/c2ccccc2Cl)N(C(=O)c2sc3ccccc3c2Cl)C1(C)C here?
Answer: > 260 µM (inactive)

Question: For CCCC(C(=O)NCc1ccco1)N(C(=O)CNS(=O)(=O)c1ccc(Cl)cc1)C1CCCC1 (configuration not stated), which EC50 [1] is on record?
Answer: > 260 µM (inactive)

Question: For Cc1cc(C)c(C#N)c(Oc2ccccc2)n1, which AC50 (Cytochrome P450 2C19; read-out: AC50) is on record?
Answer: 11.2 µM (inconclusive)

Question: Which AC50 (Cytochrome P450 2C9) does the source give for Cn1sc(NC(=O)c2ccccc2Cl)nc1=O here?
Answer: 17.8 µM (inconclusive)

Question: For O=C(c1ccncc1)N1CCC2(CC1)CCN(c1ccccc1)CC2, which AC50 (Cytochrome P450 2C19; read-out: AC50) is on record?
Answer: 39.8 µM (inconclusive)

Question: For COc1cccc(Nc2ncc3nc(-c4ccccc4)c(=O)n(C4CC4)c3n2)c1, which AC50 (Cytochrome P450 2C9) is on record?
Answer: 10 µM (inconclusive)

Question: Which EC50 [1] does the source give for COc1ccc(-c2nc(C#N)c(N3CCCCC3)o2)cc1 here?
Answer: > 260 µM (inactive)

Question: Which EC50 [2] does the source give for CC(C)Cc1ccc(C#N)c(SCC(N)=O)n1 here?
Answer: > 195 µM (not active)

Question: With CCOC(=O)C1C(=O)OC(C)(C)C1C(C)C(=O)c1ccc(C)cc1C (configuration not stated) as the compound, how does the EC50 [1] read?
Answer: > 260 µM (inactive)

Question: Which EC50 [1] does the source give for O=C(CNC(=O)C1CCCCC1)OCC(=O)c1ccc(Br)cc1 here?
Answer: > 260 µM (inactive)

Question: With COCCCNC(=O)C1CC(=O)N(Cc2ccc(OC)cc2)C1 (configuration not stated) as the compound, how does the AC50 (Cytochrome P450 2C19; read-out: AC50) read?
Answer: 22.4 µM (inconclusive)

Question: And the AC50 (Cytochrome P450 3A4)?
Answer: 20 µM (inconclusive)

Question: Which results are given for CC1(C)O[C@@H]2C[C@H]3[C@H]4C[C@H](F)C5=CC(=O)C=C[C@@]5(C)[C@@H]4[C@H](O)C[C@]3(C)[C@]2(C(=O)CO)O1?
Answer: AC50 (Cytochrome P450 2C19): inconclusive; AC50 (Cytochrome P450 3A4): 12.6 µM (inconclusive)

Question: For O=C1CC(N2CCC(c3nc4ccccc4[nH]3)CC2)C(=O)N1c1ccccc1F (configuration not stated), which EC50 [1] is on record?
Answer: > 260 µM (inactive)

Question: With CSc1ccc(C(=O)C2CCCN(Cc3cccnc3)C2)cc1 (configuration not stated) as the compound, how does the EC50 [1] read?
Answer: > 260 µM (inactive)

Question: Which EC50 [2] does the source give for CN1CCN(S(=O)(=O)c2cccc(C(=O)NCCC3=CCCCC3)c2)CC1 here?
Answer: > 195 µM (not active)

Question: Which results are given for CCOc1ccc(N2C(=O)CN=C2Nc2ccccc2F)cc1?
Answer: AC50 (Cytochrome P450 2C19; read-out: AC50): 25.1 µM (inconclusive); AC50 (Cytochrome P450 1A2): 15.8 µM (inconclusive)
